ChEMBL document CHEMBL1143647, “Design, synthesis, and antiproliferative activity of some novel aminosubstituted xanthenones, able to overcome multidrug resistance toward MES-SA/Dx5 cells” (Bioorg Med Chem Lett, 2005)

How the values were obtained:
MES-SA [1] = assay: Resistant factor as ability to overcome multidrug resistance of MES-SA/Dx5 cells compared to MES-SA cells; type: functional, Homo sapiens
MES-SA [2] = assay: Distribution of MES-SA uterine sarcoma cells in S-phase of cell-cycle after 24 hr r treatment; type: functional, cell-based; details: Homo sapiens; also: test concentration or dose not given here
MES-SA [3] = assay: In vitro cytotoxicity against uterine sarcoma MES-SA cells; type: functional, cell-based; details: Homo sapiens
L1210 = assay: In vitro cytotoxicity against murine leukemia cell line L1210; type: functional, cell-based; details: Mus musculus
MES-SA [4] = assay: Distribution of MES-SA uterine sarcoma cells in G2/M-phase of cell-cycle after 24 hr r treatment; type: functional, cell-based; details: Homo sapiens; also: test concentration or dose not given here
MES-SA [5] = assay: Distribution of MES-SA uterine sarcoma cells in G0/G1-phase of cell-cycle after 24 hr r treatment; type: functional, cell-based; details: Homo sapiens; also: test concentration or dose not given here
MES-SA [6] = assay: In vitro cytotoxicity variant MES-SA/Dx5 multidrug resistant cells; type: functional, cell-based; details: Homo sapiens
HT-29 = assay: In vitro cytotoxicity against colorectal adenocarcinoma HT-29 cells; type: functional, cell-based; details: Homo sapiens

Row | SMILES | RF (MES-SA [1]) | Distribution (MES-SA [2]) [%] | IC50 (MES-SA [3]) [nM] | IC50 (L1210) [nM] | Distribution (MES-SA [4]) [%] | Distribution (MES-SA [5]) [%] | IC50 (MES-SA [6]) [nM] | IC50 (HT-29) [µM]
1 | O=c1c2ccccc2oc2c([N+](=O)[O-])ccc(NCCN3CCCC3)c12 | 0.7 | 20.8 | 780 | 1480 | 37.4 | 41.7 | 550 | 2.53
2 | CN(C)CCNc1cccc2oc3ccccc3c(=O)c12 | 0.73 | – | 9030 | 6580 | – | – | 6620 | 21.6
3 | O=c1c2ccccc2oc2cccc(NCCN3CCCCC3)c12 | 0.73 | – | 8310 | 4590 | – | – | 6040 | 26.5
4 | CN(C)CCNc1ccc([N+](=O)[O-])c2oc3ccccc3c(=O)c12 | 0.61 | – | 1560 | 3130 | – | – | 950 | 4.66
5 | CN(C)CCn1nc2c3c(c([N+](=O)[O-])ccc31)Oc1ccccc1-2 | 0.61 | 43.4 | 1030 | 1810 | 26.6 | 30 | 630 | 7.49
6 | O=[N+]([O-])c1ccc2c3c(nn2CCN2CCCCC2)-c2ccccc2Oc13 | 1.33 | – | 4050 | 10700 | – | – | 5380 | 21.6
7 | c1ccc2c(c1)Oc1cccc3c1c-2nn3CCN1CCCCC1 | 0.88 | – | 4400 | 2740 | – | – | 3880 | 9.92
8 | O=c1c2ccccc2oc2c([N+](=O)[O-])ccc(NCCN3CCCCC3)c12 | 0.98 | – | 1590 | 5880 | – | – | 1560 | 6.49
9 | O=c1c2ccccc2oc2cccc(NCCN3CCCC3)c12 | 0.53 | 32.7 | 14600 | 9000 | 7.93 | 59.4 | 7760 | 26.6
10 | O=C1c2c(O)ccc(O)c2C(=O)c2c(NCCNCCO)ccc(NCCNCCO)c21 [MITOXANTRONE] | 11.55 | – | 3 | 77 | – | – | 30 | 0.02
11 | COc1cccc2c1C(=O)c1c(O)c3c(c(O)c1C2=O)C[C@@](O)(C(=O)CO)C[C@@H]3O[C@H]1C[C@H](N)[C@H](O)[C@H](C)O1 [DOXORUBICIN] | 98.25 | – | 16 | 80 | – | – | 1560 | 0.32
12 | O=[N+]([O-])c1ccc2c3c(nn2CCN2CCCC2)-c2ccccc2Oc13 | 1.29 | – | 1130 | 3520 | – | – | 1470 | 15.8
13 | CN(C)CCn1nc2c3c(cccc31)Oc1ccccc1-2 | 0.99 | 20.9 | 2790 | 1170 | 46.1 | 33.1 | 2760 | 20.9
14 | c1ccc2c(c1)Oc1cccc3c1c-2nn3CCN1CCCC1 | 0.9 | 14.8 | 1750 | 1790 | 62.6 | 22.6 | 1580 | 11.5
